Publication PMC6930600, “Synthesis of Aryl Propionamide Scaffold Containing a Pentafluorosulfanyl Moiety as SARMs” (Molecules, 2019)

Target: T1, androgen receptor (AR) (Homo sapiens, UniProt P10275)
T1 construct: AR expressed transiently from plasmid pSVAR0 (known as a human full-length AR expression vector)
T1 sequence (P10275 1-920): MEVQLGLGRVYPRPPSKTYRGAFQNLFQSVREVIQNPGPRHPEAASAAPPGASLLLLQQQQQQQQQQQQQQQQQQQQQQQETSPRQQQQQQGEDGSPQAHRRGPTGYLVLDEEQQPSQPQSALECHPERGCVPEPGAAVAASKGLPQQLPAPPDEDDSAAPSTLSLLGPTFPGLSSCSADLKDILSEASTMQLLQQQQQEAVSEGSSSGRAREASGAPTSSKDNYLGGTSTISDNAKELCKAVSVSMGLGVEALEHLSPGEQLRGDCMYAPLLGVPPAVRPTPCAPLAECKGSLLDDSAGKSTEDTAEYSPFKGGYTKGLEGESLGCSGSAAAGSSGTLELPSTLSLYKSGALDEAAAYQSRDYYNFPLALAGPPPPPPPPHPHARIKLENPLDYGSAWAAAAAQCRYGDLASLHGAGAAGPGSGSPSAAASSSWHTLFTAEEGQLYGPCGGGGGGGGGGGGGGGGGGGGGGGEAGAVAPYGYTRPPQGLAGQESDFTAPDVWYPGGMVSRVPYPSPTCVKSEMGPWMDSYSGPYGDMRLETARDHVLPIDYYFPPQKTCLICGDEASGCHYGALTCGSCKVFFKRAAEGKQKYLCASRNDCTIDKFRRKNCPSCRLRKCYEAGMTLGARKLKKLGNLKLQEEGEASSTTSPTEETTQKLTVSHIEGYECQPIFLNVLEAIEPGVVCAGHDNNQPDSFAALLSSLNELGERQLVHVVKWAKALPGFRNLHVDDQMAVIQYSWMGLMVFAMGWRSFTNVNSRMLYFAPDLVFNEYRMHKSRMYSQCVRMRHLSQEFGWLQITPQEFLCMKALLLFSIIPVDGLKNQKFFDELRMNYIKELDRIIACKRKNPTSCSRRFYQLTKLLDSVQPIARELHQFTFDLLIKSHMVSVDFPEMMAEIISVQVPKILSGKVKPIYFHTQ
Experiment: MMTV-luciferase reporter gene agonist assay, transfected CV-1 cells
Type: cell-based
Conditions: agonist mode, […] h, […] °C
Source text: MMTV-luciferase reporter gene agonist assay, transfected CV-1 cells on androgen receptor (AR)

## COc1ccc(OC[C@](C)(O)C(=O)Nc2ccc(S(F)(F)(F)(F)F)cc2)c(F)c1 [16g, (S)-3-(2-fluoro-4-methoxyphenoxy)-2-hydroxy-2-methyl-N-(4-(pentafluorosulfanyl)phenyl)propanamide]
unreliable
  Agonist activity in CV-1 / EC50: 2.144 ± 0.6944 µM

## C[C@](O)(COc1ccc(Cl)cc1)C(=O)Nc1cccc(S(F)(F)(F)(F)F)c1 [12c, (S)-3-(4-chlorophenoxy)-2-hydroxy-2-methyl-N-(3-(pentafluoro-l6-sulfanyl)phenyl)propanamide]
unreliable
  Agonist activity in CV-1 / EC50: 1.282 ± 0.0792 µM

## CCC(=O)c1ccc(OC[C@](C)(O)C(=O)Nc2cccc(S(F)(F)(F)(F)F)c2)cc1 [12f, (S)-2-hydroxy-2-methyl-N-(3-(pentafluoro-l6-sulfanyl)phenyl)-3-(4-propionylphenoxy)propanamide]
unreliable
  Agonist activity in CV-1 / EC50: 12.7335 ± 2.1447 µM

## C[C@](O)(COc1ccc(F)cc1)C(=O)Nc1cccc(S(F)(F)(F)(F)F)c1 [12b, (S)-3-(4-fluorophenoxy)-2-hydroxy-2-methyl-N-(3-(pentafluoro-l6-sulfanyl)phenyl)propanamide]
Unreliable (above top tested concentration […])
  Agonist activity in CV-1 / EC50: 51.2135 ± 5.8061 µM

## C[C@](O)(COc1ccc(C#N)cc1)C(=O)Nc1cccc(S(F)(F)(F)(F)F)c1 [12a, (S)-3-(4-cyanophenoxy)-2-hydroxy-2-methyl-N-(3-(pentafluoro-l6-sulfanyl)phenyl)propanamide]
unreliable
  Agonist activity in CV-1 / EC50: 1.508 ± 0.4299 µM
